Patent US20070270475A1, “4-Methoxy-Pyrrolidine-2-Carboxylic Acid Compounds and Derivatives Thereof as Hepatitis C Virus Inhibitors” (priority 2004, published 2007)

Biological target: T1, HCV RNA Polymerase, recombinant NS5B with C-terminal 21 amino acid deletion, genotype 1a (strain H77) (Hepatitis C virus genotype 1a, UniProt P27958)
T1 construct: fused on or other part: C-terminal 6His-tag
Test: In vitro HCV RNA-dependent RNA polymerase inhibition assay, genotype 1a C-terminally truncated (delta21) enzyme
Type: biochemical, HCV genotype 1a
Details: genotype 1a NS5B delta21, 25 nM enzyme; read-out: IC50 in delta-21 1a enzyme inhibition assay
Excerpt: In Vitro Detection of inhibitors of HCV RNA-Dependent RNA Polymerase Activity
Incorporation of [^33P]-GMP into RNA was followed by absorption of the biotin labelled RNA polymer by streptavidin containing SPA beads. A synthetic template consisting of biotinylated 13mer-oligoG hybridised to polyrC was used as a homopolymer substrate.
a) Genotype 1a C-Terminally Truncated (delta21) Enzyme
HCV RNA Polymerase [Recombinant NS5B with C-terminal 21 amino acid deletion and C-terminal 6His-tag (Ferrari et al. J. Virol. 73(2), 1999, 1649. ‘Characterization of soluble hepatitis C virus RNA-dependent RNA polymerase expressed in Escherichia coli.’) expressed in E. coli and purified to homogeneity] was added to 25 nM final concentration. Polymerase of genotype la was from strain H77 (Yanagi, M., Purcell, R. H., Emerson, S. U. & Bukh, J. (1997), Proceedings of the National Academy of Sciences, USA 94, 8738-8743) containing a sequence change from valine to isoleucine at position 180.
Reaction Conditions were 25 nM enzyme, 1.5 μg/ml oligo-rG13/poly-rC and 0.2 μCi α-^33P-GTP in 0.5 μM GTP (20 Ci/mMol) , 20 mM Tris pH 7.5, 23 mM NaCl, 3 mM DTT, 5 mM MgCl2, 1 mM MnCl2.
Enzyme was diluted to 500 nM concentration in 20 mM Tris-HCl, pH 7.5, 25 mM NaCl and 3 mM DTT.
4× concentrated assay buffer mix was prepared using 1M Tris-HCl, pH7.5 (1 mL), 5M NaCl (0.25 mL), 1M DTT (0.12 mL) and Water (8.63 mL), Total 10 mL.
2× concentrated first reagent was prepared using 4× concentrated assay buffer mix (5 μL), 40 μ/μL RNasin (0.1 μL), 20 μg/mL polyrC/biotinylated-oligorG (1.6 μL), 500 nM enzyme (1 μL ) and Water (2.3 μL), Total 10 μL/well.
2× concentrated second reagent was prepared using 1 M MgCl2 ([…]), 1M MnCl2 (0.02 μL), 25 μM GTP (0.4 μL), α-[^33P]-GTP (10 μCi/μL, 0.02 μL) and water (9.5 μL), Total 10 μL/well.
The assay was set up using compound (1 μL in 100% DMSO), first reagent (10 μL), and second reagent (10 μL), Total 21 μL.
The reaction was performed in a U-bottomed, white, 96-well plate. The reaction was mixed on a plate-shaker, after addition of the Enzyme, and incubated for 1 h at 22° C. After this time, the reaction was stopped by addition of 60 μL 1.5 mg/ml streptavidin SPA beads (Amersham) in 0.1 M EDTA in PBS. The beads were incubated with the reaction mixture for 1 h at 22° C. after which 100 μL 0.1 M EDTA in PBS was added. The plate was sealed, mixed centrifuged and incorporated radioactivity determined by counting in a Trilux (Wallac) or Topcount (Packard) Scintillation Counter.
After subtraction of background levels without enzyme, any reduction in the amount of radioactivity incorporated in the presence of a compound, compared to that in the absence, was taken as a measure of the level of inhibition. Ten concentrations of compounds were tested in three- or fivefold dilutions. From the counts per minute, percentage of inhibition at highest concentration tested or IC50s for the compounds were calculated using GraFit 3, GraFit 4 or GraFit 5 (Erithacus Software Ltd.) software packages or a data evaluation macro for Excel based on XLFit software (IDBS).

T1 sequence (P27958 2601-2990 limits assumed, stated change not applied): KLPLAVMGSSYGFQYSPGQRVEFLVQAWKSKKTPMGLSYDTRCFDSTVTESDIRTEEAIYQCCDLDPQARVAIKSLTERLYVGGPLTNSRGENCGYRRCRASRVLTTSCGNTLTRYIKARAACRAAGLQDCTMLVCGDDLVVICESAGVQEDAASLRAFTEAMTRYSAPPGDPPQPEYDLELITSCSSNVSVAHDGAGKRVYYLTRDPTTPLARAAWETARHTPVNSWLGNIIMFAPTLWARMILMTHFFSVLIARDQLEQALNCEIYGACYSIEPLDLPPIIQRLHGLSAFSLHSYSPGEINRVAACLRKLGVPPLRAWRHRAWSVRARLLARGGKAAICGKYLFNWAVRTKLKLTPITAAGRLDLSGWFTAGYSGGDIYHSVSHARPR

Q: With COC[C@H]1C[C@@](CC(C)C)(C(=O)O)N(C(=O)c2ccc(C(C)(C)C)c(OC)c2)[C@H]1c1nccs1 (racemic) [Compound A, rel-(2S,4S,5R)-2-isobutyl-1-(3-methoxy-4-tert-butylbenzoyl)-4-methoxymethyl-5-(1,3-thiazol-2-yl)pyrrolidine-2-carboxylic acid, reference compound] as the compound, how does the IC50 read?
A: Its IC50 is greater than 1000 nM.

Q: Which IC50 does the source give for COC[C@H]1C[C@@](CC(C)C)(C(=O)O)N(C(=O)c2ccc(C(C)(C)C)c(OC)c2)[C@H]1c1ncc(C)s1 (racemic) [Compound C, rel-(2S,4S,5R)-2-isobutyl-1-(3-methoxy-4-tert-butylbenzoyl)-4-methoxymethyl-5-(5-methyl-1,3-thiazol-2-yl)pyrrolidine-2-carboxylic acid, reference compound] here?
A: The IC50 was greater than 1000 nM.

Q: Which IC50 does the source give for COC[C@H]1C[C@@](Cc2ccccc2)(C(=O)O)N(C(=O)c2ccc(C(C)(C)C)c(OC)c2)[C@H]1c1nccs1 (racemic) [Compound E, rel-(2R,4S,5R)-2-benzyl-1-(3-methoxy-4-tert-butylbenzoyl)-4-methoxymethyl-5-(1,3-thiazol-2-yl)-pyrrolidine-2-carboxylic acid, reference compound] here?
A: The IC50 was greater than 1000 nM.

Q: How did the IC50 turn out when COC[C@H]1C[C@@](Cc2cscn2)(C(=O)O)N(C(=O)c2ccc(C(C)(C)C)c(OC)c2)[C@H]1c1ncc(C)s1 (racemic) [Example 1, rel-(2R,4S,5R)-1-(3-Methoxy-4-tert-butylbenzoyl)-4-(methoxymethyl)-5-(5-methyl-1,3-thiazol-2-yl)-2-(1,3-thiazol-4-ylmethyl)pyrrolidine-2-carboxylic acid] was run?
A: Its IC50 is less than 750 nM.

Q: For COC[C@H]1C[C@@](Cc2cscn2)(C(=O)O)N(C(=O)c2ccc(C(C)(C)C)c(OC)c2)[C@H]1c1nccs1 (racemic) [Example 3, rel-(2R,4S,5R)-1-(3-Methoxy-4-tert-butylbenzoyl)-4-(methoxymethyl)-5-(1,3-thiazol-2-yl)-2-(1,3-thiazol-4-ylmethyl)pyrrolidine-2-carboxylic acid], which IC50 is on record?
A: Its IC50 is less than 750 nM.

Q: COC[C@H]1C[C@@](Cc2ccsn2)(C(=O)O)N(C(=O)c2ccc(C(C)(C)C)c(OC)c2)[C@H]1c1nccs1 (racemic) [Example 4, rel-(2R,4S,5R)-1-(3-Methoxy-4-tert-butylbenzoyl)-4-(methoxymethyl)-5-(1,3-thiazol-2-yl)-2-(1,2-thiazol-3-ylmethyl)pyrrolidine-2-carboxylic acid] was tested. Which IC50 did it give?
A: The IC50 was less than 750 nM.

Q: With COC[C@H]1C[C@@](Cn2cccn2)(C(=O)O)N(C(=O)c2ccc(C(C)(C)C)c(OC)c2)[C@H]1c1nccs1 (racemic) [Example 6, rel-(2R,4S,5R)-1-(3-Methoxy-4-tert-butylbenzoyl)-4-(methoxymethyl)-2-(1H-pyrazol-1-ylmethyl)-5-(1,3-thiazol-2-yl)pyrrolidine-2-carboxylic acid] as the compound, how does the IC50 read?
A: The IC50 was less than 750 nM.

Q: With COC[C@H]1C[C@@](Cc2nccs2)(C(=O)O)N(C(=O)c2ccc(C(C)(C)C)c(OC)c2)[C@H]1c1ncc(C)s1 (racemic) [Example 8, rel-(2R,4S,5R)-1-(3-Methoxy-4-tert-butylbenzoyl)-4-(methoxymethyl)-5-(5-methyl-1,3-thiazol-2-yl)-2-(1,3-thiazol-2-ylmethyl)pyrrolidine-2-carboxylic acid] as the compound, how does the IC50 read?
A: Its IC50 is less than 750 nM.

Q: Which IC50 does the source give for COC[C@H]1C[C@@](Cc2ccsn2)(C(=O)O)N(C(=O)c2ccc(C(C)(C)C)c(OC)c2)[C@H]1c1ncc(C)s1 (racemic) [Example 9, rel-(2R,4S,5R)-1-(3-Methoxy-4-tert-butylbenzoyl)-4-(methoxymethyl)-5-(5-methyl-1,3-thiazol-2-yl)-2-(1,2-thiazol-3-ylmethyl)pyrrolidine-2-carboxylic acid] here?
A: Its IC50 is less than 750 nM.

Q: For COC[C@H]1C[C@@](Cn2cccn2)(C(=O)O)N(C(=O)c2ccc(C(C)(C)C)c(OC)c2)[C@H]1c1ncc(C)s1 (racemic) [Example 10, rel-(2R,4S,5R)-1-(3-Methoxy-4-tert-butylbenzoyl)-4-(methoxymethyl)-5-(5-methyl-1,3-thiazol-2-yl)-2-(1H-pyrazol-1-ylmethyl)pyrrolidine-2-carboxylic acid], which IC50 is on record?
A: The IC50 was less than 750 nM.

Q: For COC[C@H]1C[C@@](Cn2cccn2)(C(=O)O)N(C(=O)c2ccc(C(C)(C)C)c(OC)c2)[C@H]1c1nccs1 (single isomer, unassigned) [Example 7], which IC50 is on record?
A: Its IC50 is less than 750 nM.

Q: COCC1CC(CC(C)C)(C(=O)O)N(C(=O)c2ccc(C(C)(C)C)c(OC)c2)C1c1ncc(C)s1 (single isomer, unassigned; enantiomer a) [Compound D, reference compound] was tested. Which IC50 did it give?
A: The IC50 was 750 to 1000 nM.

Q: With COC[C@H]1C[C@@](Cc2cscn2)(C(=O)O)N(C(=O)c2ccc(C(C)(C)C)c(OC)c2)[C@H]1c1ncc(C)s1 (single isomer, unassigned; enantiomer a) [Example 2] as the compound, how does the IC50 read?
A: The IC50 was less than 750 nM.

Q: How did the IC50 turn out when COC[C@H]1C[C@@](Cc2ccsn2)(C(=O)O)N(C(=O)c2ccc(C(C)(C)C)c(OC)c2)[C@H]1c1nccs1 (single isomer, unassigned; enantiomer a) [Example 5] was run?
A: Its IC50 is less than 750 nM.

Q: For COC[C@H]1C[C@@](Cn2cccn2)(C(=O)O)N(C(=O)c2ccc(C(C)(C)C)c(OC)c2)[C@H]1c1ncc(C)s1 (single isomer, unassigned; enantiomer a) [Example 11], which IC50 is on record?
A: Its IC50 is less than 750 nM.

Q: How did the IC50 turn out when COC[C@H]1C[C@@](Cc2cscn2)(C(=O)O)N(C(=O)c2ccc(C(C)(C)C)c(OC)c2)[C@H]1c1nccs1 (single isomer, unassigned; enantiomer a) [Example 12] was run?
A: The IC50 was less than 750 nM.

Q: For COC[C@H]1C[C@@](CC(C)C)(C(=O)O)N(C(=O)c2ccc(C(C)(C)C)c(OC)c2)[C@H]1c1nccs1 [Compound B, (2S,4S,5R)-2-isobutyl-1-(3-methoxy-4-tert-butylbenzoyl)-4-methoxymethyl-5-(1,3-thiazol-2-yl)pyrrolidine-2-carboxylic acid, reference compound], which IC50 is on record?
A: The IC50 was greater than 1000 nM.
